Test results taken from patent US9527837B2, “Inhibitors of EZH2” (Eli Lilly and Company, priority 2014, dated 2016).

Experiments:
Karpas-422 cells = test: Karpas-422 proliferation assay; assay type: cell-based; details: Homo sapiens, KARPAS-422, 168 h; 7 days, Cell Titer GLO
Protocol: Plate Karpas-422 cells at a density of 5000 cells/100 μL/well in 96 well, black 96-well BD BioCoat Cellware, Poly-Lysine plates (BD Biosciences, Cat#354640). 40 μL of 10 mM test compound (representing starting final concentration of 20 μM) or add 100% DMSO to a Nunc 96-Well Polypropylene MicroWell Plate (Thermo Scientific Cat# #249944). Perform serial dilutions through the transfer of 20 μL from one well to the next. Add 5 μL of compound to a 245 μL/well of growth media in a separate Nunc 96-Well Polypropylene MicroWell Plate, and stamp 11 μL of the compound/media mix onto the cell plates. Incubate cell plates at 37° C. for 7 days. Add 100 μL/well of Cell Titer GLO® reagent (Promega, Cat# G7671) to the cell plates. Shake 2 minutes and measure luminescence using a plate reader.

[1] = test system: tumor TNFRSF21 gene expression (Karpas-422 xenograft); test: qPCR-based measurement of tumor-derived TNFRSF21 mRNA expression, Karpas-422 xenograft; assay type: in vivo, mice; details: 50 mpk BID oral gavage, day 7, normalized to GAPDH, p<0.0001
Protocol: (§1) The purpose of this assay is to evaluate the ability of a test compound to inhibit tumor EZH2 function and EZH2-mediated tumor growth in vivo.
To isolate RNA from tumor tissue, place tumor sections of approximately 0.5 cm by 0.25 cm or 20-30 mg in weight in Lysing Matrix D 500×2 mL Add RNASE/DNASE-free tubes with beads for homogenization (MP Biomedicals, REF: 6913-500). Add 650 μL of RLT buffer from RNeasy® Kit (Qiagen; Cat#74104). Homogenize samples 2 to 3 times at speed 6 for 20 seconds in the FastPrep FP120 homogenizer. Set samples on ice to cool for 10 minutes. Centrifuge at 13 000 rpm for 10 minutes at 4° C. Place supernatants into a QIA tube and isolate RNA using the RNeasy® Kit (Qiagen; Cat#74104).
Prepare cDNA from 3 μg of tumor RNA using the High Capacity cDNA Reverse Transcription Kit (Applied Biosystems; Cat#4368813) and incubate samples in a PCR Thermocycler using the following cycle conditions: 10 minutes at 25° C.; 2 hours at 37° C., hold at 4° C. Amplify cDNA product using Thermo Scientific ABsolute Blue QPCR ROX Mix (Applied Biosystems; Cat# AB-4139) and Taqman probes for TNFRSF21 (Applied Biosystems; Cat# Hs01560899_m1) and housekeeping gene GAPDH (Applied Biosystems; Cat# Hs02758991-g1) in the Applied Biosystems ViiA 7™ Real-Time PCR cycler. Calculate TNFRSF21 cycle threshold values and normalize to its respective sample's GAPDH levels. […]

[2] = test system: tri-methylated H3K27 in MDA MB-231 (EZH2 WT) cells; test: H3K27Me3 cell-based ELISA, MDA MB-231; details: Homo sapiens, 48 hours
Protocol: (§2) The purpose of this assay is to evaluate the ability of a compound to inhibit the functional activity of EZH2 in cells, via measurement of levels of cell tri-methylated H3K27. Plate MDA MB-231 (EZH2 WT) or Karpas-422 (EZH2 Y641N) cells at 3500/100 μL/well (for MDA MB-231) or 5,000 cells/100 μL/well (for Karpas-422) in black 96-well BD BioCoat Cellware, Poly-Lysine plates (BD Biosciences, Cat#354640). Prepare compound plates in a Nunc™ 96-Well Polypropylene MicroWell Plate (Thermo Scientific Cat# #249944) with the addition of 40 μL/well of 10 mM compound (representing starting final concentration of 20 μM) or 40 μL DMSO, then prepare serial dilutions through the transfer of 20 μL from one well to the next. Add 5 μL of test compound to 245 μL/well of growth media in a separate Nunc™ 96-Well Polypropylene MicroWell Plate, and stamp 11 μL of the compound/media mix onto the cell plates. Place cell plates in a 37° C. incubator for 48 hours. Remove plates from the incubator, place the plates at room temperature for 15-20 minutes, and spin down the plates at 1000 rpm for 5 minutes. Fix cells with 30 μL 16% paraformaldehyde for 15 minutes at room temperature. Remove the paraformaldehyde and permeabilize cells with 100 μL/well PBS minus calcium or magnesium (−/−) containing 0.1% TRITON® X-100 for 20 minutes at room temperature. […]

[3] = test system: tri-methylated H3K27 in Karpas-422 (EZH2 Y641N) cells; test: H3K27Me3 cell-based ELISA, Karpas-422; details: Homo sapiens, 48 hours
Protocol: as §2

[4] = test system: tumor tri-methylated H3K27 (Karpas-422 xenograft); test: ELISA-based measurement of tumor-derived tri-methylated H3K27, Karpas-422 xenograft; assay type: in vivo; details: mice, 50 mpk BID oral gavage, day 7, p<0.0001
Protocol: as §1
To acid-extract histones from tumors, place tumor sections of approximately 0.5 cm by 0.25 cm or 20-30 mg in weight in Lysing Matrix D 500×2 mL Add RNASE/DNASE-free tubes with beads for homogenization (MP Biomedicals, Cat#6913-500). Add 650 μL of Acid Lysis Buffer (0.4 N HCl containing Protease Inhibitor Cocktail Tablets (Roche; Cat#11836153001)). Homogenize tumor samples 2-3 times at speed 6 m/second for 20 seconds in a FastPrep FP120 homogenizer. Set samples on ice for 1 hour to separate. Transfer supernatants to an eppendorf tube and place on a tube rotator to lyse overnight at 4° C. Spin samples down at 8000 rpm for 10 minutes at 4° C. Transfer supernatants to a new tube and measure for protein concentration.
Add 150 μL/well of MSD Blocking Solution A (Meso Scale Discovery (MSD); final concentration of 3%) to a MULTI-SPOT® Tri-Methyl-Histone H3(K27) Singleplex plate (MSD; Cat#: N45CA-1). Shake at room temperature for 1 hour. Wash the plate with 1×MSD Tris Wash Buffer™ (MSD), (3×). Dispense 0.25 μg of tumor lysate in 25 μL Acid Lysis Buffer per well in triplicate. Shake overnight at 4° C. […] Add 150 μL/well 1×MSD® Read Buffer and measure chemoelectroluminescence using a MSD SECTOR® Imager 6000 instrument.

COC1CN([C@H]2CC[C@H]([C@@H](C)c3scc(C(=O)NCc4c(C)cc(C)[nH]c4=O)c3C)CC2)C1 [Example 1, N-[(4,6-Dimethyl-2-oxo-1,2-dihydropyridin-3-yl)methyl]-5-{(1R)-1-[trans-4-(3-methoxyazetidin-1-yl)cyclohexyl]ethyl}-4-methylthiophene-3-carboxamide]
IC50 (Karpas-422 cells): 49.7 ± 33.9 nM
increase in tumor TNFRSF21 gene expression [1]: 25 fold
IC50 [2]: 1.88 ± 0.66 nM
IC50 [3]: 3.79 ± 1.02 nM
inhibition of tumor methylation [4]: 53%

COC1CN([C@H]2CC[C@H]([C@H](C)c3scc(C(=O)NCc4c(C)cc(C)[nH]c4=O)c3C)CC2)C1 [Example 2, N-[(4,6-Dimethyl-2-oxo-1,2-dihydropyridin-3-yl)methyl]-5-{(1S)-1-[trans-4-(3-methoxyazetin-1-yl)cyclohexyl]ethyl}-4-methylthiophene-3-carboxamide]
IC50 (Karpas-422 cells): 526 nM
IC50 [2]: 9.02 ± 2.69 nM
IC50 [3]: 144 ± 232 nM
